Reference: US9034886B2, “4-aminoquinazoline derivatives and uses thereof” (Shanghai Institute of Pharmaceutical Industry, priority 2011, dated 2015)

How the values were obtained:
[1] = test system: A549 human lung cancer cells; assay: In vitro anti-proliferative effect, CCK-8 method, A549; format: cell-based; details: Homo sapiens, A549
Method: (§1) The inhibitory activities of the compounds towards Hut78 T lymphocytic leukemia cells, Jurkat E6-1 human T-cell lymphoma, PANC-1 human pancreatic cancer cells, A549 human lung cancer cells, K562 human chronic myelogenous leukemia cells, Hep3B2.1-7 human liver cancer cells, MDA-MB-435s human breast cancer cells. Colo320 human colorectal cancer cell lines, and PC-3 human prostate cancer at two concentrations of 100 μM and 10 μM were determined. The inhibition percentages were obtained through CCK-8 method.

[2] = test system: PANC-1 human pancreatic cancer cells; assay: In vitro anti-proliferative effect, CCK-8 method, PANC-1; format: cell-based; details: Homo sapiens, PANC-1
Method: as §1

[3] = test system: Hut78 T lymphocytic leukemia cells; assay: In vitro anti-proliferative effect, CCK-8 method, Hut78; format: cell-based; details: Homo sapiens, HuT78, read-out: Hut-78 (inhibition %)
Method: as §1

[4] = test system: Hep3B2.1-7 human liver cancer cells; assay: In vitro anti-proliferative effect, CCK-8 method, Hep3B; format: cell-based; details: Homo sapiens, Hep3B cell strain, CCK-8 method; for inhibition at 10 µM: compound at 10 μM; for inhibition at 100 µM: compound at 100 μM
Method: as §1

[5] = test system: Jurkat E6-1 human T-cell lymphoma; assay: In vitro anti-proliferative effect, CCK-8 method, Jurkat E6-1; format: cell-based; details: Homo sapiens, Jurkat E6.1
Method: as §1

[6] = test system: K562 human chronic myelogenous leukemia cells; assay: In vitro anti-proliferative effect, CCK-8 method, K562; format: cell-based; details: Homo sapiens, K562
Method: as §1

[7] = test system: PC-3 human prostate cancer; assay: In vitro anti-proliferative effect, CCK-8 method, PC-3; format: cell-based; details: Homo sapiens, PC-3 cell strain, CCK-8 method; for inhibition at 10 µM: compound at 10 μM; for inhibition at 100 µM: compound at 100 μM
Method: as §1

HDAC1 = HDAC1 (Homo sapiens (Human), UniProt Q13547); assay: In vitro inhibition of subtype HDAC1 (HDAC1 Inhibitor Drug Screening Kit, Biovision); format: biochemical; details: for inhibition at 1 µM / inhibition at 10 µM: read-out: % Inhibition towards HDAC1; for inhibitory activity against HDAC1 compared with MS-275: both concentrations 10 μM and 1 μM
HDAC1, sequence (Q13547 whole entry): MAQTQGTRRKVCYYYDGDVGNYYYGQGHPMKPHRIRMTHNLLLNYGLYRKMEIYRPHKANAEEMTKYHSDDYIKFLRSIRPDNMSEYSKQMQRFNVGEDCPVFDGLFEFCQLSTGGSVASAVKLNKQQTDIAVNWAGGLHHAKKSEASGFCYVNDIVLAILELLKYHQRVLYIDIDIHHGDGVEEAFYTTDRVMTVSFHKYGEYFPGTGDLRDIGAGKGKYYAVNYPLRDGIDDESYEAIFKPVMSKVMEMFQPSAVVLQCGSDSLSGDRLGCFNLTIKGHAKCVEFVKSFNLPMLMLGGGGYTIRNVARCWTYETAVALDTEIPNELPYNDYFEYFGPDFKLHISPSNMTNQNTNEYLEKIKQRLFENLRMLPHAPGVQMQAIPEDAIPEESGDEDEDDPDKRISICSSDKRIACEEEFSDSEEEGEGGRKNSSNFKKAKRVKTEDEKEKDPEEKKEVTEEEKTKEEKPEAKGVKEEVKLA
Method: The in vitro inhibitory activities of the compounds towards the subtype HDAC1 were tested according to the instructions in the HDAC1 Inhibitor Drug Screening Kit (Biovision).
(1) The compounds to be tested were each individually prepared as 10 μM and 1 μM solutions and their inhibitory activities at these concentrations were tested.
Each dilution sample was placed in two wells and the enzyme inhibition IC50 of the compound was tested.

[8] = test system: Colo320 human colorectal cancer cell lines; assay: In vitro anti-proliferative effect, CCK-8 method, Colo320; format: cell-based; details: Homo sapiens, COLO 320, Colo320 cell strain, CCK-8 method; for inhibition at 10 µM: compound at 10 μM; for inhibition at 100 µM: compound at 100 μM
Method: as §1

[9] = test system: MDA-MB-435s human breast cancer cells; assay: In vitro anti-proliferative effect, CCK-8 method, MDA-MB-435s; format: cell-based; details: Homo sapiens, MDA-MB-435S
Method: as §1

HDACs = assay: In vitro inhibition of HDACs (HDAC Inhibitor Drug Screening Kit, Biovision K340-100); format: biochemical
Method: The in vitro inhibitory activities of the compounds towards HDACs were tested according to the instructions in the HDAC Inhibitor Drug Screening Kit (Biovision/Catalog #K340-100).
(1) The compounds to be tested were each individually prepared as 2 mM, 200 μM and 40 μM solutions and their inhibitory activities at these concentrations were tested.

Structure (SMILES)	inhibition at 10 µM [1]	inhibition at 100 µM [1]	inhibition at 10 µM [2]	inhibition at 100 µM [2]	inhibition at 10 µM [3]	inhibition at 100 µM [3]	inhibition at 10 µM [4]	inhibition at 100 µM [4]	inhibition at 10 µM [5]	inhibition at 100 µM [5]	inhibition at 10 µM [6]	inhibition at 100 µM [6]	inhibition at 10 µM [7]	inhibition at 100 µM [7]	inhibition at 1 µM (HDAC1)	inhibition at 10 µM (HDAC1)	inhibition at 10 µM [8]	inhibition at 100 µM [8]	inhibition at 10 µM [9]	inhibition at 100 µM [9]	other results
COc1cccc2ncnc(Nc3ccc(C(=O)Nc4ccncc4N)cc3)c12 [Compound V-8]	-5.9%	38%	-1.8%	34.9%	17.5%	83.6%	5%	90.4%	36.4%	96.3%	56.9%	94.5%	29.7%	89.3%	21.4%	62.7%	-1.8%	86.4%	14.2%	94.5%	IC50 (HDACs): 7.76 µM; Inhibition percentage (%) towards HDACs (HDACs; 40 μM): 8.9%; Inhibition percentage (%) towards HDACs (HDACs; 200 μM): 41.1%; Inhibition percentage (%) towards HDACs (HDACs; 2 mM): 46.2%
COc1cccc2c(Nc3ccc(C(=O)Nc4cc(F)ccc4N)cc3)ncnc12 [Compound V-10, N-(2-amino-5-fluorophenyl)-4-(8-methoxy-quinazoline-4-amino)benzamide]	-4.4%	40.1%	13%	19%	8.1%	47.5%	3.7%	31.3%	25.3%	72.8%	45%	62.1%	13.7%	57.4%	45.2%	62.6%	6.4%	23.3%	9.4%	82.9%	IC50 (HDACs): 1.04 µM; inhibitory activity according to in vitro IC50 value against HDACs compared with MS-275 (HDACs): better inhibitory activities than MS-275; Inhibition percentage (%) towards HDACs (HDACs; 40 μM): 12.0%; Inhibition percentage (%) towards HDACs (HDACs; 200 μM): 32.9%; Inhibition percentage (%) towards HDACs (HDACs; 2 mM): 77.2%
Nc1ccccc1NC(=O)c1ccc(Nc2ncnc3ccc(F)cc23)cc1 [Compound V-12, N-(2-aminophenyl)-4-(6-fluoroquinazoline-4-amino)benzamide]	-9%	55.1%	15.8%	21.9%	62.5%	62.5%	4.7%	67.1%	25%	87.4%	49.3%	69.8%	25.5%	61.3%	15%	49.1%	2.4%	46.1%	5.7%	77.2%	IC50 (HDACs): 0.92 µM; Inhibition percentage (%) towards HDACs (HDACs; 40 μM): 16.8%; Inhibition percentage (%) towards HDACs (HDACs; 200 μM): 43.0%; Inhibition percentage (%) towards HDACs (HDACs; 2 mM): 85.2%
COCCOc1cc2ncnc(Nc3ccc(C(=O)Nc4ccccc4N)cc3)c2cc1OCCOC [Compound V-15, N-(2-aminophenyl)-4-(6,7-dimethoxyethoxyquinazoline-4-amino)benzamide]	4.7%	3.5%	7.2%	0.5%	70.7%	80.4%	16.3%	11.2%	33.7%	13.9%	27.2%	11.9%	10.9%	8.6%	67.1%	78.8%	15.3%	3.9%	21.6%	21%	inhibitory activity against HDAC1 compared with MS-275 (HDAC1): superior to that of MS-275; IC50 (HDACs): 9.4 µM; Inhibition percentage (%) towards HDACs (HDACs; 40 μM): 13.7%; Inhibition percentage (%) towards HDACs (HDACs; 200 μM): 51.5%; Inhibition percentage (%) towards HDACs (HDACs; 2 mM): 61.4%
COCCOc1cc2ncnc(Nc3ccc(C(=O)Nc4ccncc4N)cc3)c2cc1OCCOC [Compound V-16]	48.7%	65.7%	8%	7.8%	26.2%	20.7%	24.8%	13.5%	37.2%	22.1%	42.8%	29.7%	5.1%	3.4%	59.1%	87.4%	-2.3%	-17.1%	49.8%	50.4%	inhibitory activity against HDAC1 compared with MS-275 (HDAC1): superior to that of MS-275; IC50 (HDACs): 6.89 µM; Inhibition percentage (%) towards HDACs (HDACs; 40 μM): 24.8%; Inhibition percentage (%) towards HDACs (HDACs; 200 μM): 56.8%; Inhibition percentage (%) towards HDACs (HDACs; 2 mM): 58.6%
CS(=O)(=O)CCNCc1ccc(-c2ccc3ncnc(Nc4ccc(C(=O)Nc5ccccc5N)cc4)c3c2)o1 [Compound V-19, N-(2-aminophenyl)-4-[6-(5-((2-(methylsulfonyl)ethylamino)methyl)furyl)quinazoline-4-amino]benzamide]	6.3%	37.3%	20.2%	26.2%	43%	77%	25.4%	49.9%	58.3%	80.9%	54.3%	85.8%	50.2%	61%	47.6%	80.2%	12.9%	40.1%	33%	77%	inhibitory activity against HDAC1 compared with MS-275 (HDAC1): superior to that of MS-275; IC50 (HDACs): 1.37 µM; Inhibition percentage (%) towards HDACs (HDACs; 40 μM): 22.7%; Inhibition percentage (%) towards HDACs (HDACs; 200 μM): 57.8%; Inhibition percentage (%) towards HDACs (HDACs; 2 mM): 72.3%
CC(=O)Nc1ccc2ncnc(Nc3ccc(C(=O)Nc4ccccc4N)cc3)c2c1 [Compound V-21, N-(2-aminophenyl)-4-(6-acetamidoquinazoline-4-amino)benzamide]	17.1%	96.4%	12.5%	33.3%	65.2%	75.6%	11%	68.1%	49.3%	89.7%	52.2%	85.2%	40.1%	64.2%	55%	86.9%	9.5%	45.9%	25.2%	88.8%	inhibitory activity against HDAC1 compared with MS-275 (HDAC1): superior to that of MS-275; Inhibition percentage (%) towards HDACs (HDACs; 40 μM): 10.1%; Inhibition percentage (%) towards HDACs (HDACs; 200 μM): 39.1%; Inhibition percentage (%) towards HDACs (HDACs; 2 mM): 79.2%
